Measurements from patent US10196373B2, “Substituted 2-hydroxy-4-(2-(phenylsulfonamido)acetamido)benzoic acid analogs as inhibitors of STAT protein” (University of Central Florida Research Foundation, Inc., priority 2010, dated 2019).

Legend:
Type in all cases: cell-based
[1] = test system: OCI-AMI.2 cells; experiment: Cell viability, MTS assay
[2] = test system: MDA-468 cells; experiment: Cell viability, MTS assay; conditions: Homo sapiens, MDA-468, 72 hours
Experimental: (§1) To further test activity of these molecules, a whole-cell study involving cancer lines with known abherrant STAT3 expression was conducted. These human cell lines, including prostate cancer (DU145), breast cancer (MDA468), and promyelocytic leukemia (HL-60) were treated with the peptidomimetics and incubated for 72 hours. Disruption of cell viability was measured by MTS assay and IC50 values for the potential inhibitors was determined. OriginPro 8 (Northampton, Mass.) was used to evaluate EC50 using the dose response curve defined as follows:
(§2) [formula] where y is the fraction of death, x is the log of drug concentration. A2 is the top asymptote, A1 is the bottom asymptote, logx0 is the center of the curve, and p is the hill slope.

[3] = test system: DU-145 cells; experiment: Cell viability, MTS assay; conditions: Homo sapiens, DU-145, 72 hours
Experimental: as §1, §2

[4] = test system: HL60 cells; experiment: Cell viability, MTS assay; conditions: Homo sapiens, HL-60, HL60, 72 hours
Experimental: as §1, §2

[5] = test system: MV-4-11 cells; experiment: Cell viability in cell lines with constitutive activation of STAT5 (Almar Blue); conditions: Homo sapiens, MV4-11
Experimental: (§3) To determine whether STAT5 inhbitors could be cytotoxic in cell lines that have constitutive activation of STAT5, the cell lines K562 and MV-4-11 were cultured at concentration 1×10^5, to insure that the cells are at the exponential stage of growth, and treated with the different synthesized molecules at concentrations of 10, 20 and 40 μM. Viability were determined using Almar Blue (Invitrogen) in 96-well plate over 3 consecutive days. Fluorescence was quantified using Spectra Max M5 (Molecular Devices).

[6] = test system: K562 cells; experiment: as above; conditions: Homo sapiens
Experimental: as §3

## CN(CC(=O)N(Cc1ccc(C2CCCCC2)cc1)c1ccc(C(=O)O)c(O)c1)S(=O)(=O)c1ccc(-c2ccccc2)cc1 [Compound 45c, 4-(N-(4-cyclohexylbenzyl)-2-(N-methylbiphenyl-4-ylsulfonamido)acetamido)-2-hydroxy-benzoic acid]
[1]
  IC50: 95.4 ± 33.7 µM
[2]
  IC50: 47.4 ± 6.2 µM
[3]
  IC50: 80 ± 31.6 µM
[4]
  IC50: 74.8 ± 28.2 µM
[5]
  IC50: 17 ± 1 µM
[6]
  IC50: 42 ± 16 µM

## COC(=O)c1cccc(-c2ccc(-c3ccc(CN(C(=O)CN(C)S(=O)(=O)c4ccc(C)cc4)c4ccc(C(=O)O)c(O)c4)cc3)cc2)c1 [Compound 27na]
[1]
  IC50: 35.1 ± 19.4 µM
[2]
  IC50: 29 ± 2.3 µM
[3]
  IC50: 81.5 ± 8 µM
[4]
  IC50: 33.2 ± 9.2 µM
[5]
  IC50: 24 ± 2 µM
[6]
  IC50: 24 ± 3 µM
